Measurements published in US20090088441A1, “Quinoline Compounds” (priority 2007, published 2009).

Tests used:
[1] = target: T1, GABAB(1A,2) receptor heterodimer (Homo sapiens, UniProt O75899+Q9UBS5); test: GTPγS35 radioligand filtration-binding assay for determination of PAM potency; assay type: biochemical; details: membranes of CHO-K1 cells expressing GABABR1a/GABABR2; GABA dose-response with 10, 1, 0.1 and 0.01 μM PAM; concentration reducing GABA's EC50 by 50%; read-out: Mean (EC50 derived) PAM EC50
T1 construct: expressed in transfected cells; membrane preparation
Method: The effect of GABA in an automated GTPγS^35 radioligand filtration-binding assay in CHO cells expressing the GABAB(1A,2) receptor heterodimer was studied in the presence or absence of the positive allosteric modulator test compounds.
(§1) The potency and efficacy of the compounds acting as agonists at the GABAB receptor was also determined in a automated GTPγS^35 radioligand filtration-binding assay.
(§2) The GABAB receptor is a G-protein coupled receptor. Binding of a ligand activates the receptor leading to recruitment of G-protein and a substitution of the G-protein bound GDP to GTP. The G-protein becomes active. The G-protein is inactivated by hydrolysis of GTP to GDP. G-proteins are membrane bound and therefore present in membrane preparations.
(§3) In the GTPγS^35 assay, GTP is not present but instead GTPγS^35 where one of the phosphate groups are substituted to a sulphur group which cannot be hydrolysed. Upon activation of the receptor, radiolabelled GTPγS^35 replaces the GDP. The complex cannot be inactivated and the radiolabelled complex is accumulating. At the end of the assay, the reaction mixture is filtered through a membrane-binding filter. Excess GTPγS^35 is removed by washing and the membrane bound S^35, which correlates to the degree of receptor activation, is measured with a β-Liquid Scintillation Counter.
GABABR1a and GABABR2 were cloned from human brain cDNA and subcloned into pCI-Neo (Promega) and pALTER-1 (Promega), respectively.
In order to optimise the Kozak consensus sequence of GABABR2, in situ mutagenesis was performed using the Altered Sites Mutagenesis kit according to manufacturer's instruction (Promega) with the following primer, 5′-[…]-3′. The optimised GABABR2 was then restricted from pALTER-1 with Xho I+Kpn I and subcloned into the mammalian expression vector pcDNA3.1 (−)/Zeo (Invitrogen) to produce the final construct, pcDNA3.1 (−)/Zeo-GABABR2.
For generation of stable cell lines, CHO-K1 cells were grown in Nut mix F-12 (Ham) media supplemented with 10% FBS, 100 U/ml Penicillin and 100 μg/ml Streptomycin at 37° C. in a humidified CO2-incubator. The cells were detached with 1 mM EDTA in PBS and 1 million cells were seeded in 100 mm petri dishes. After 24 hours the culture media was replaced with OptiMEM and incubated for 1 hour in a CO2-incubator.
For generation of a cell line expressing the GABABR1a/GABABR2 heterodimer, GABABR1a plasmid DNA ([…]) GABABR2 plasmid DNA (4 μg) and lipofectamine (24 μl) were mixed in 5 ml OptiMEM and incubated for 45 minutes at room temperature. […] After expansion, the GABAB receptor functional response was tested by measuring the GABAB receptor dependent release of intracellular calcium in a fluorescence imaging plate reader (FLIPR). […]

[2] = target: T2, GABABR1a/GABABR2 heterodimer (Homo sapiens, UniProt O75899+Q9UBS5); test: GTPγS35 radioligand filtration-binding assay for determination of agonist potency; assay type: biochemical; details: membranes of CHO K1 Flp-In cells expressing GABABR1a/GABABR2; 30° C., 1 hour
T2 construct: expressed in transfected cells; membrane preparation
Method: as §1, §2, §3
The human GABABR1a was subcloned into pIRESneo3 (Clontech) using GABABR1a construct as a template (refseqN NM001470). GABABR2 was subcloned into pcDNA5/FRT (Invitrogen) using GABABR2 construct as a template (refseqN NM005458). The Kozak sequence GCCACC was introduced before the start codon in both constructs.
For generation of stable cell lines, CHO K1 Flp-In cells (Invitrogen) were grown in DMEM/F12 1:1 media supplemented with 10% FBS at 37° C. in a humidified CO2-incubator. The cells were detached with Accutase and 1.5 million cells were seeded into T75 flasks. After 24 h, transfection of the cells were performed with the GABABR2 construct. For generation of cell lines expressing GABABR2, GABABR2 plasmid (1 μg) and pOG44 from Invitrogen (9 μg) were mixed with 30 μl Lipofectamine 2000 in 600 μl OptiMEM for 20 minutes. The cells were exposed to transfection medium for 5 hours and was then replaced with culture medium. After 2 days 0.5 mg/ml Hygromycin were added to culture medium. The cells were cultured for an additional 10 days to establish a stable cell mix expressing GABABR2. For generation of a cell line expressing the GABABR1a/GABABR2 hetrodimer, GABABR1a plasmid DNA (8 μg) and Lipofectamine (30 μl) were mixed in 600 μl OptiMEM and incubated for 20 minutes before added to CHO-Flp-In cells expressing GABABR2. After 2 days additional selection agent was added (0.8 mg/ml Geneticin). The cells were cultured for another 10 days to generate a stable mixed population expressing the GABABR1a/GABABR2 heterodimer. The cell line was analyzed by GTPγS^35 assay with GABA as agonist.
GTPγS^35 radioligand filtration-binding assays were performed using an automated workstation at 30° C. for 1 hour in assay buffer (50 mM HEPES, 40 mM NaCl, 1 mM MgCl2×6H2O, 30 μg/mL Saponin, pH 7.4 at RT) containing 0.025 μg/μL of membrane protein (prepared from the cell line described above), 10 μM GDP and 0.55 nCi/μL GTPγS^35 in a final volume of 60 μL. The reaction was started by the addition of compounds (GABA was always included as a positive control), start concentration 100 μM dilution factor 3. The reaction was terminated and membranes collected by addition of ice-cold wash buffer (50 mM Tris-HCl, 5 mM MgCl2×6H2O, 50 mM NaCl, pH 7.4 at 4° C.) followed by rapid filtration under vacuum through a MultiScreen HTS 384 FB filter plate. Repeated washing of the filters with ice-cold wash buffer washed the unbound radioligand away. The filter plates were dried for 1½-2 hours at 50° C., then 8 μL scintillation liquid was added per well followed by incubation at RT for at least 20 minutes before bound radioactivity was determined using a β-Liquid Scintillation Counter (1450 Microbeta Trilux, Wallac, Finland)
100% activation (max) is calculated as the mean value for wells containing 1 mM GABA. […]

T2 sequence (Q9UBS5 15-961 limits assumed): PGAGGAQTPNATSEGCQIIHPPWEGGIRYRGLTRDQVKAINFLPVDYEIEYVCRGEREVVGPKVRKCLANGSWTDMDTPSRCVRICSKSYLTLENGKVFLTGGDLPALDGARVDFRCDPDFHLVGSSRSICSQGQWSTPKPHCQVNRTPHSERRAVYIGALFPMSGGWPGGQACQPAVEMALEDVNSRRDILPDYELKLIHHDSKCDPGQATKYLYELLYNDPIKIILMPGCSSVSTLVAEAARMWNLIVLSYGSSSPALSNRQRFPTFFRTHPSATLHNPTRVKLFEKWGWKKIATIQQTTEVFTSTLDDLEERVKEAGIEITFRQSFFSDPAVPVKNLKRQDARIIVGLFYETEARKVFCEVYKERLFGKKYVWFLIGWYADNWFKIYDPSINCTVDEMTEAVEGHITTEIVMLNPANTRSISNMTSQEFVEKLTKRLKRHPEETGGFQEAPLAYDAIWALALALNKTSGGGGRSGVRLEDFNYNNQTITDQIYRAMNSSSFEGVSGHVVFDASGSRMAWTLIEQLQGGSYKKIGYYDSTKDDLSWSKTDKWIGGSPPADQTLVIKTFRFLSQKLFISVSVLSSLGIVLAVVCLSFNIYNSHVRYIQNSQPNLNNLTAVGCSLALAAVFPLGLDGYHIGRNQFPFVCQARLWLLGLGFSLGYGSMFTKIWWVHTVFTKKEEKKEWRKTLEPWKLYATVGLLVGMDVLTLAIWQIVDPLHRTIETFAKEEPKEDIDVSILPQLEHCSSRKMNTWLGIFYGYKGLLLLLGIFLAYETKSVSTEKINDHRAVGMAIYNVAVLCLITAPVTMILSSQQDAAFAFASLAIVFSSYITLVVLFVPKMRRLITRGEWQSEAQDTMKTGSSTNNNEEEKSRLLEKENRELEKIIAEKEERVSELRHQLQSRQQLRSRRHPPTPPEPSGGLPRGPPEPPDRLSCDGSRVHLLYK
T2 sequence (O75899 42-941): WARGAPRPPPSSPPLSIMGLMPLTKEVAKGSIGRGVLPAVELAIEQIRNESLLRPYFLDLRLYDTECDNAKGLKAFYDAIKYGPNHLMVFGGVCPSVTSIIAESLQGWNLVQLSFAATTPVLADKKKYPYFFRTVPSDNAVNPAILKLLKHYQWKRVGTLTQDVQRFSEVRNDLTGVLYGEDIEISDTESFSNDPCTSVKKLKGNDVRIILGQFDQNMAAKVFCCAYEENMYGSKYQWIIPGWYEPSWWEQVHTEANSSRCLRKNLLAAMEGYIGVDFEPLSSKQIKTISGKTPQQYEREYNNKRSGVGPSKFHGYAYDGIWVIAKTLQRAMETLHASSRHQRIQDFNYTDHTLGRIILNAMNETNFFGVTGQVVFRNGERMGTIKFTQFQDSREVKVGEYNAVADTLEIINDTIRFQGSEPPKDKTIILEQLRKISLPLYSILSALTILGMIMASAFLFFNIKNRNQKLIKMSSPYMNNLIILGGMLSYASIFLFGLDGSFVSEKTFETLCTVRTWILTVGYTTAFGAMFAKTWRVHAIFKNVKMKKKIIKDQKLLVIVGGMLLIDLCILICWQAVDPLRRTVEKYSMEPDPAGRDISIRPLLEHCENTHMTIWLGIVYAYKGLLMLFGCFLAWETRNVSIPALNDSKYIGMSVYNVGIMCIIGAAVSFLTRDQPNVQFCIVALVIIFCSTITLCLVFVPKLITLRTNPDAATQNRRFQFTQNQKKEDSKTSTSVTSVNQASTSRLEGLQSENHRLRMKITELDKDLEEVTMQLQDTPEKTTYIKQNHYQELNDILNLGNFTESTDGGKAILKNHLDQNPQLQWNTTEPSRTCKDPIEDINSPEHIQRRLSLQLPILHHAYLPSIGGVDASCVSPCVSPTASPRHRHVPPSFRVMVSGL
T1 sequence (Q9UBS5 15-961 limits assumed): as the sequence (Q9UBS5 15-961 limits assumed) above
T1 sequence (O75899 42-941): as the sequence (O75899 42-941) above

Row | EC50 [1] [µM] | EC50 [2] [µM] | SMILES
1 | 9.2 | 6.5 | Cc1nc2ccc(Br)cc2c(-c2ccc(F)cc2)c1C(C)Oc1ccc(Cl)cc1 (centres unmarked) [Example 2, 6-bromo-3-[1-(4-chlorophenoxy)ethyl]-4-(4-fluorophenyl)-2-methylquinoline]
2 | 24 | 1 | Cc1nc2ccc(N3CCCCC3)cc2c(-c2ccc(F)cc2)c1C(C)Oc1ccc(Cl)cc1 (centres unmarked) [Example 4, 3-[1-(4-chlorophenoxy)ethyl]-4-(4-fluorophenyl)-2-methyl-6-piperidin-1-ylquinoline]
3 | 3.1 | – | Cc1nc2ccc(Br)cc2c(-c2ccc(F)cc2)c1C(=O)OC(C)(C)C [Example 20, tert-butyl 6-bromo-4-(4-fluorophenyl)-2-methylquinoline-3-carboxylate]
4 | 18 | 1.3 | Cc1nc2ccc(N3CCCCC3)cc2c(-c2ccc(F)cc2)c1C(=O)OC(C)(C)C [Example 22, tert-butyl 4-(4-fluorophenyl)-2-methyl-6-piperidin-1-ylquinoline-3-carboxylate]
5 | – | 1.1 | Cc1nc2ccc(N3CCCCC3)cc2c(-c2ccc(F)cc2)c1COc1ccc(Cl)cc1 [Example 25, 3-[(4-chlorophenoxy)methyl]-4-(4-fluorophenyl)-2-methyl-6-piperidin-1-ylquinoline]
